Reference: the NIST ThermoML archive (doi:10.1016/j.jct.2008.07.017)

Legend:
[1] = Crystal 2; DTA
[2] = Solid-liquid equilibrium temperature

CCCCCCCCCCCCCCCCCCCCCCCCCCCCCC [triacontane]
Conditions | Triple point temperature [K]
[1] | 361.27

Solid-liquid equilibrium temperature [K], [2]
Conditions | 10000 kPa | 25000 kPa | 50000 kPa | 75000 kPa | 100000 kPa | 125000 kPa | 150000 kPa
Crystal 1, DTA | 341.68 | 345.34 | 351.45 | 357 | 362.54 | 367.76 | 372.97
Crystal 2, DTA | 338.9 | 343.03 | 349.8 | 356.07 | – | – | –

CCCCCCCCCCCCCCCCCCCCCCCC [tetracosane]
Conditions | Triple point temperature [K]
[1] | 339.59

Solid-liquid equilibrium temperature [K], [2]
Conditions | 10000 kPa | 25000 kPa | 40000 kPa | 50000 kPa | 100000 kPa | 125000 kPa | 150000 kPa
Crystal 1, DTA | 326.74 | 330.4 | 333.86 | 336.12 | 346.93 | 352.26 | 357.28
Crystal 2, DTA | 324.24 | 328.4 | 332.37 | 334.94 | – | – | –

CCCCCCCCCCCCCCCCCCCC [eicosane]
[2], Crystal, DTA
Conditions | Solid-liquid equilibrium temperature [K]
33520 kPa | 318.15
55080 kPa | 323.15
76800 kPa | 328.15
99090 kPa | 333.15
150000 kPa | 344.91

CCCCCCCCCCCCCCCCCCCCCCCCCCCCCCCCCCCCCCCC [tetracontane]
Conditions | Triple point temperature [K]
[1] | 376.03

Solid-liquid equilibrium temperature [K], [2]
Conditions | 10000 kPa | 35758 kPa | 48436 kPa | 50000 kPa | 68114 kPa | 73917 kPa | 90000 kPa | 112740 kPa | 130000 kPa
Crystal 1 | 357.34 | 363.15 | – | 367.26 | 371.15 | – | 376.58 | 381.15 | 385.22
Crystal 2 | 351.37 | – | 363.15 | 364.54 | – | 371.15 | – | – | –
